Holding throughout (format): functional, cell-based
Assay [1] has as its system HUVEC. In words: The compound was tested for the ability to inhibit inducible cell adhesion molecule expression (ICAM-1) in primary human endothelial cell line (HUVEC).
The test system of assay [2] is HMEC. In words: The compound was tested for the ability to inhibit inducible cell adhesion molecule expression (VCAM-1) in primary human micro vascular cell line (HMEC-1).
Assay [3] has as its system HMEC. In words: The compound was tested for the ability to inhibit inducible cell adhesion molecule expression (ICAM-1) in primary human micro vascular cell line (HMEC-1).
Assay [4] concerns HUVEC. The assay can be described thus: The compound was tested for the ability to inhibit inducible cell adhesion molecule expression (E-selectin) in primary human endothelial cell line (HUVEC).
The test system of assay [5] is HUVEC. The assay can be described thus: The compound was tested for the ability to inhibit inducible cell adhesion molecule expression (VCAM-1) in primary human endothelial cell line (HUVEC).
In assay [6] the test system is HUVEC. The assay can be described thus: The compound (derived from natural HUN-7293) was tested for the ability to inhibit inducible cell adhesion molecule expression (E-selectin) in primary human endothelial cell line (HUVEC).
The subject of assay [7] is HUVEC. In words: The compound (synthetic) was tested for the ability to inhibit inducible cell adhesion molecule expression (E-selectin) in primary human endothelial cell line (HUVEC).
For assay [8], the system named is HUVEC. In words: The compound (synthetic) was tested for the ability to inhibit inducible cell adhesion molecule expression (VCAM-1) in primary human endothelial cell line (HUVEC).
Assay [9] concerns HMEC. In words: The compound (derived from natural HUN-7293) was tested for the ability to inhibit inducible cell adhesion molecule expression (VCAM-1) in primary human micro vascular cell line (HMEC-1).
Assay [10] relates to HMEC. In words: The compound (derived from natural HUN-7293) was tested for the ability to inhibit inducible cell adhesion molecule expression (ICAM-1) in primary human micro vascular cell line (HMEC-1).
Assay [11] concerns HMEC. In words: The compound (synthetic) was tested for the ability to inhibit inducible cell adhesion molecule expression (VCAM-1) in primary human micro vascular cell line (HMEC-1).
The subject of assay [12] is HUVEC. The assay can be described thus: The compound (derived from natural HUN-7293) was tested for the ability to inhibit inducible cell adhesion molecule expression (ICAM-1) in primary human endothelial cell line (HUVEC).
The test system of assay [13] is HUVEC. The assay can be described thus: The compound (derived from natural HUN-7293) was tested for the ability to inhibit inducible cell adhesion molecule expression (VCAM-1) in primary human endothelial cell line (HUVEC).
Assay [14] has as its system HUVEC. The assay can be described thus: The compound (synthetic) was tested for the ability to inhibit inducible cell adhesion molecule expression (ICAM-1) in primary human endothelial cell line (HUVEC).

*1 amine or outer side, *2 acyl side, *3 side chain or, on linkers, in order; H or OH if unused. Where a SMILES comes first, the peptide text is derived from it. [ ]: non-standard residue; d: D form. NMeTrp(1-OMe) = CN[C@@H](Cc1cn(OC)c2ccccc12)C(=O)O; Butanoyl(2R-oxy,4-CN) = N#CCC[C@@H](O)C(=O)O; X1 = CCCC[C@@H](C)C[C@H](N[*:1])C(=O)[*:2]; NMeL = CN[C@@H](CC(C)C)C(=O)O; NMeA = CN[C@@H](C)C(=O)O

Take `CCCC[C@@H](C)C[C@@H]1NC(=O)[C@@H](CCC#N)NC(=O)[C@H](C)N(C)C(=O)[C@H](C[C@H](C)CCCC)NC(=O)[C@H](Cc2cn(OC)c3ccccc23)N(C)C(=O)[C@H](CC(C)C)NC(=O)[C@@H](CC(C)C)N(C)C1=O`: the 50% inhibitory concentration (IC50) in assay [1] was above 3000 nM; in assay [2] it was 550 nM; in assay [3], above 3000 nM; in [4] it was above 10000 nM; in assay [5], 560 nM.

Consider `CCCC[C@@H](C)C[C@@H]1NC(=O)[C@H](Cc2cn(OC)c3ccccc23)N(C)C(=O)[C@H](CC(C)C)NC(=O)[C@H](CC(C)C)N(C)C(=O)[C@H](C[C@H](C)CCCC)NC(=O)[C@@H](CCC#N)NC(=O)[C@H](C)N(C)C1=O`, for which the 50% inhibitory concentration (IC50) in assay [6] was 540 nM; in assay [7] it was 1000 nM; in [8], 64 nM; in assay [9], 22 nM; in assay [10] it was 540 nM; in [11], 58 nM. Further, the figures for the IC50 in [12], in [13] and in [14] were 540 nM, 33 nM and 950 nM, respectively.

In the case of `CCCC[C@@H](C)C[C@@H]1NC(=O)[C@H](Cc2cn(OC)c3ccccc23)N(C)C(=O)[C@H](CC(C)C)NC(=O)[C@H](CC(C)C)N(C)C(=O)[C@H](C[C@H](C)CCCC)NC(=O)[C@@H](CCC#N)OC(=O)[C@H](C)N(C)C1=O` (cyclo(L[NMeTrp(1-OMe)][X1][NMeA][Butanoyl(2R-oxy,4-CN)][X1][NMeL])), the IC50 in assay [1] was found to be 26 nM; in assay [2], 1 nM; in assay [3], 24 nM; in [4], 44 nM; in [5] it was 3 nM.

By IC50 is commonly meant the point on the concentration scale where inhibition reaches its midpoint. A high value points to lower potency.

(Values after ChEMBL document CHEMBL1133260, “Synthesis and evaluation of aza HUN-7293” (Bioorg Med Chem Lett, 2000).)
